Measured values from ChEMBL document CHEMBL4627280, “Discovery of disubstituted xylylene derivatives as small molecule direct inhibitors of Keap1-Nrf2 protein-protein interaction” (Bioorg Med Chem, 2020).
pIC50: −log10 of the molar value.

How the values were obtained:
[1] = Metabolic stability in human liver microsomes assessed as parent compound remaining at 0.1 mM measured after 90 mins by LC/MS analysis; type: ADME, Microsome; settings: read-out: Stability
[2] = biological target: Kelch-like ECH-associated protein 1 (Homo sapiens, UniProt Q14145); assay: Inhibition of FITC-LDEETGEFL-NH2 binding to recombinant human Keap1 Kelch domain (321 to 609 residues) expressed in Escherichia Coli BL21(DE3)pLysS cells centrifuged for 2 mins followed by 30 mins incubation under shaking condition by fluorescence polarization assay
Chain of Kelch-like ECH-associated protein 1 (Q14145 whole entry, the tested form may be a part): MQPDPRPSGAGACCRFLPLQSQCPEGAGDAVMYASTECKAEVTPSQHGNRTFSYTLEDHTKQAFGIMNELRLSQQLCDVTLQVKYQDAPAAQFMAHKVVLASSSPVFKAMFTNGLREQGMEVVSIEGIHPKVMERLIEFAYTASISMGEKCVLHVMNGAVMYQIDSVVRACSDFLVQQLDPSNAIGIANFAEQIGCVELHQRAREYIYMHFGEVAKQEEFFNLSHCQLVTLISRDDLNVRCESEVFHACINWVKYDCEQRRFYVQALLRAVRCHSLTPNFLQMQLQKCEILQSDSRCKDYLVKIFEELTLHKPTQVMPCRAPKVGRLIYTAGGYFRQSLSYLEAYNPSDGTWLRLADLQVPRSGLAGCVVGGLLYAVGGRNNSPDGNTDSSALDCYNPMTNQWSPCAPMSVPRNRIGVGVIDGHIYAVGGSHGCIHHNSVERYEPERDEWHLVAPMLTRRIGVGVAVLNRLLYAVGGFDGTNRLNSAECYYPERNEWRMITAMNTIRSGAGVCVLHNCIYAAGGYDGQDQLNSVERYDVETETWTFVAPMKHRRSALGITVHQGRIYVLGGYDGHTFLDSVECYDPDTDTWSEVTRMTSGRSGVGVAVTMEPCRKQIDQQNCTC

remaining at 1.5 h, 100 µM [1] [%] | pIC50 [2] | Compound
97.7 | 5.64 | COc1ccc(S(=O)(=O)N(CC(=O)O)Cc2ccccc2CN(CC(=O)O)S(=O)(=O)c2ccc(OC)cc2)cc1
98.2 |  | COc1ccc(S(=O)(=O)N(Cc2ccccc2CN([C@@H](C)C(=O)O)S(=O)(=O)c2ccc(OC)cc2)[C@@H](C)C(=O)O)cc1
56.9 |  | COc1ccc(S(=O)(=O)N(CC(=O)O)c2ccc(N(CC(=O)O)S(=O)(=O)c3ccc(OC)cc3)c3ccccc23)cc1
